Test results taken from publication PMC4466507, “Seneca Valley Virus 3C^pro Substrate Optimization Yields Efficient Substrates for Use in Peptide-Prodrug Therapy” (PLoS ONE, 2015).
“And” between values parts separate entries of the source, which are not always exact repeats. Equal values may be shown once.

How the values were obtained:
[1] = target: T1, SVV-001 3C^pro produced during SVV-001 infection of NCI-H446 cells (Seneca Valley virus, UniProt Q155Z9); assay: Fluorescently quenched peptide cellular assay (SVV-001 infected NCI-H446 cells); format: cell-based, Seneca Valley Virus (SVV-001); details: FQ peptide 3 μM; for cleavage (increase in fluorescence) with SVV-001 infected cells / cleavage (increase in fluorescence) with uninfected cells: 3 hours at 37°C
T1 construct: 3C^pro released during a lytic viral infection is the sole source of the 3C^pro; endogenous in cells; host or cells: NCI-H446 (human SCLC) cells infected with wild-type SVV-001 for 8 h
T1 sequence (Q155Z9 1508-1719): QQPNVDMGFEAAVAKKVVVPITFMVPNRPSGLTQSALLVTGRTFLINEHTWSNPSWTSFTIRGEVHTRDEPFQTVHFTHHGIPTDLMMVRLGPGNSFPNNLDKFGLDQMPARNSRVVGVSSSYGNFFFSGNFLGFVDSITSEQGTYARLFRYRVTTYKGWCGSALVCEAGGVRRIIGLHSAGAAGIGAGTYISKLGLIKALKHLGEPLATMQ
Description: (§1) All SVV-001 stocks were cultured and purified as described previously and virus titers were determined by tissue culture infective dose (TCID50). The SCLC cell line, NCI-H446 (ATCC) was cultured in RPMI 1640 media (Quality Biological) supplemented with 10% fetal bovine serum (HyClone). The cell line NCI-H446 is routinely tested and authenticated by short tandem repeat (STR) analysis by DDC Medical and was last authenticated six months before submission.
A similar cellular assay was performed as described in the previous paragraph with the exception of using the CPQ2/5-FAM L/VP4.1 and NHL fluorogenic peptides described earlier. After an 8 hour infection with SVV-001, NCI-H446 cells were removed from the cell culture dish using phenol-red free RPMI 1640 media supplemented with 0.1% ethylenediaminetetraacetic acid (EDTA, Sigma) to aid in gentle cell detachment, and pelleted via centrifugation. Pellets were resuspended in phenol-red free RPMI 1640 prior to plating in black opaque 96 well plates as above. CPQ2/5-FAM peptides, L/VP4.1 or NHL were added at a final concentration of 3 μM to plated cells and incubated for 3 hours at 37°C. Fluorescence emissions at 520 nm, corresponding to the liberated 5-FAM fluorophore peptide cleavage product was followed after excitation at 490 nm by a Synergy Neo multimode plate reader (Biotek) every 60 s. The experiment was performed in triplicate in a 96 well flat bottom black opaque plate and average fluorescence units were used to observe changes in fluorescence. Standard curves of 5-FAM fluorescence vs. concentration were generated to convert the relative fluorescence units to moles of cleaved product generated during the reaction. Initial rates of hydrolysis were calculated from data during the first 10 minutes of the reaction and averaged from 3–4 separate experiments. Uncertainty is expressed by standard deviation and shown with error bars.

[2] = Plasma stability assay; format: in vitro ADME; details: pooled, 50% plasma/water, peptide 20 μM, 1 hour at 37°C; for change in fluorescence relative to plasma alone: human plasma, fluorescence read-out (ex 490 nm/em 520 nm) every 60 s, triplicate
Description: Human plasma was obtained from pooled discarded clinical samples less than 6 hrs old. Human plasma was isolated from whole blood by centrifugation, pooled, and diluted 1:1 with distilled H2O (Gibco). The L/VP4.1 and NHL fluorogenic peptides (20 μM) were incubated with plasma for 1 h at 37°C. Fluorescence emissions were obtained as described above by a DTX 880 multimode detector ([…]) every 60 s. Experiments were performed in triplicate in a 96 well flat bottom black opaque plate and the average fluorescence units were used to observe changes in fluorescence. Uncertainty is expressed by standard deviation.

[3] = target: T1, SVV-001 3C^pro produced during SVV-001 infection of NCI-H446 cells; assay: FRET substrate cellular assay (SVV-001 infected NCI-H446 cells); format: cell-based, Seneca Valley Virus (SVV-001); details: FP substrate 200 nM, NCI-H446 cells after 8 h SVV-001 infection, 3 h at 37°C
Description: as §1
Cells (1.6 × 10^7) were plated on a 150 mm cell culture dish (Corning) and allowed to recover overnight at 37°C. Each plate was inoculated with SVV-001 at the TCID50 and infected cells were incubated at 37°C for 8 h. After aspiration of the media, cells were mechanically lifted from the plate in phenol-red free RPMI 1640 media (Gibco) and pelleted by centrifugation. […] During the substrate incubation the change in FRET was measured with a Tecan Safire fluorimeter as described above. Conversion of the L/VP4.1 substrate to cleaved substrate was calculated by dividing the change in the FRET ratio at each time point by the total change in the FRET ratio corresponding to complete cleavage of the substrate. The conversion of the NHL substrate was similarly determined by dividing the change in the FRET ratio of the NHL at each time point by the total change in the FRET ratio of the L/VP4.1 substrate corresponding to complete cleavage. […]

[4] = target: T2, SVV-001 3C^pro (Seneca Valley virus, UniProt Q155Z9); assay: FRET substrate cleavage assay with purified recombinant SVV-001 3C^pro; format: biochemical, Seneca Valley Virus (SVV-001); details: for kcat/KM: CyPet/YPet FRET fusion protein substrate 200 nM, PBS pH 7.4, 30°C, average of 5–7 experiments, uncertainty SD, N/A where no cleavage was measurable; for kcat/KM / cleavage by SVV-001 3C^pro (result in words): 3 h; for Relative to WT: kcat/KM relative to endogenous L/VP4 FRET substrate; for cleavage by SVV-001 3C^pro (result in words): FRET fusion protein substrate 200 nM, 30°C
T2 construct: made in house; host or cells: E. coli BL21 AI
T2 sequence (Q155Z9 1509-1719): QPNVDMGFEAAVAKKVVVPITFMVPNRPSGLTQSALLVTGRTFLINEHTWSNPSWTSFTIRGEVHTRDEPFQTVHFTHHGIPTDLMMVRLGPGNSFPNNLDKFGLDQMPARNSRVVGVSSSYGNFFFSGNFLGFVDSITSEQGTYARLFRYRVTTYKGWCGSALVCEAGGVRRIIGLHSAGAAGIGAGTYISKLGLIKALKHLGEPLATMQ
Description: (§2) Reactions were performed in PBS, pH 7.4 and 200 nM FRET substrate in a total volume of 100 μL. Substrates were incubated with 250 nM SVV-001 3C^pro at 30°C for 3 h. Human rhinovirus (HRV) control substrate was incubated with recombinant HRV 3C^pro under the same conditions. Fluorescence emissions at 475 nm and 527 nm, corresponding to CyPet and YPet respectively, were followed after excitation at 433 nm every 180 s by a Safire fluorimeter (Tecan). All experiments were performed in triplicate. FRET ratios (YPet fluorescence/CyPet fluorescence) were calculated at each timepoint. Conversion of each substrate to cleaved substrate was calculated by dividing the change in the FRET ratio at each timepoint by the total change in the FRET ratio corresponding to complete cleavage of the substrate. Using the equation from Boulware et al., conversion data was plotted vs. time (s) and fit with the equation: […] where [E] is the 3C^pro concentration (M) and t is time (s). The second order rate constant (k cat/K M) was determined by the curve fit using GraphPad Prism software. Reported values are the average k cat/K M values of 5–7 experiments. Uncertainty is expressed by standard deviation. Error bars on data points were removed for figure clarity.

[5] = target: T3, HRV 3C^pro (Human rhinovirus 14, UniProt P03303); assay: FRET substrate cleavage assay with recombinant HRV 3C^pro; format: biochemical
T3 construct: Recombinant HRV 3C Protease was purchased from Sigma; purchased Sigma
T3 sequence (P03303 1538-1719): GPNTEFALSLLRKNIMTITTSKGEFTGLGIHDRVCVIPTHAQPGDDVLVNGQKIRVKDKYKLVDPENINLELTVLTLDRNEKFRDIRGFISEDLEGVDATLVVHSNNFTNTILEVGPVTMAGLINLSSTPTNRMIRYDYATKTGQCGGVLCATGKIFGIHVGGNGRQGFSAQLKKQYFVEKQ
Description: as §2
Supplementary file pone.0129103.s004.tif: S4 Fig Comparison of SVV 3C^pro- L/VP4.1 Substrate Specificity to Selected Picornavirus Protease-Substrate Pairs. A. Substrates L/VP4.1 (labeled SVV), HRV, and Coxsackievirus (CAV) 2C/3A substrate (labeled CAV) with amino acid sequence MEALFQ↓GP were incubated with 250 nM SVV 3C^pro (black data points), HRV 3C^pro (blue data points), or CAV 3C^pro (red data points) for 3 hours at 30°C. CAV 3C^pro was cloned, overexpressed, and purified using the same methods described for SVV 3C^pro in the Methods section. The decrease in FRET was measured in real time using a fluorimeter and data was converted to display fraction of substrate converted to hydrolyzed substrate over time. Data points represent the average of three replicates at each time point. […]

[6] = test system: CAV 3C^pro; assay: FRET substrate cleavage assay with CAV 3C^pro; format: biochemical, Coxsackie A virus (CAV); details: 250 nM CAV 3C^pro, 3 hours at 30°C
Description: Supplementary file pone.0129103.s004.tif: S4 Fig Comparison of SVV 3C^pro- L/VP4.1 Substrate Specificity to Selected Picornavirus Protease-Substrate Pairs. A. Substrates L/VP4.1 (labeled SVV), HRV, and Coxsackievirus (CAV) 2C/3A substrate (labeled CAV) with amino acid sequence MEALFQ↓GP were incubated with 250 nM SVV 3C^pro (black data points), HRV 3C^pro (blue data points), or CAV 3C^pro (red data points) for 3 hours at 30°C. CAV 3C^pro was cloned, overexpressed, and purified using the same methods described for SVV 3C^pro in the Methods section. The decrease in FRET was measured in real time using a fluorimeter and data was converted to display fraction of substrate converted to hydrolyzed substrate over time. Data points represent the average of three replicates at each time point. B. Heat map depicting relative rates of cleavage for protease-substrate pairs compared to the native protease-substrate pair. (TIF) Click here for additional data file.

[7] = NCI-H446 cells after 8 hour SVV-001 infection
[8] = FRET fusion protein substrate, 250 nM SVV-001 3C^pro

CPQ2-GGSGGS-K(5FAM)-KK-NH2 [NHL FQ peptide, non-hydrolysable linker peptide CPQ2-GGSGGS-K(5FAM)-KK-NH2, negative control, reference compound]
cleavage (increase in fluorescence) with SVV-001 infected cells [1, 7]: not cleaved
cleavage (increase in fluorescence) with uninfected cells ([1]; uninfected NCI-H446 cells): not cleaved

CPQ2-IVYELQGP-K(5FAM)-KK-NH2 [L/VP4.1 FQ peptide]
initial rate of reaction, SVV infected cells ([1]; NCI-H446 cells after 8 hour SVV-001 infection, 37°C, first 10 minutes, averaged from 3–4 experiments, SD): 0.446 ± 0.0056 pmol/s
cleavage (increase in fluorescence) with SVV-001 infected cells [1, 7]: significant increase in fluorescence
initial rate of reaction, uninfected cells ([1]; uninfected NCI-H446 cells, 37°C, first 10 minutes, averaged from 3–4 experiments, SD): 0.168 ± 0.0025 pmol/s
cleavage (increase in fluorescence) with uninfected cells ([1]; uninfected NCI-H446 cells): did not show an appreciable increase in fluorescence
change in fluorescence relative to plasma alone [2]: no significant change in fluorescence
stability in human plasma (conclusion) ([2]; fluorescence read-out): stable

GGSGGS [NHL, non-hydrolysable linker FP substrate (GGSGGS), negative control, reference compound]
loss of FRET (cleavage) with SVV-001 infected cells [3]: did not show a loss of FRET
change in fluorescence relative to plasma alone [2]: no significant change in fluorescence

IVFELQGP [L/VP4.3, L/VP4.1 FRET substrate with P4 Y→F substitution]
kcat/KM ([4]; 250 nM SVV-001 3C^pro): 12160 M⁻¹ s⁻¹
cleavage less efficient than the L/VP4.1 Pro variant [4, 8]: 30%
Relative to WT [4]: 6.3

IVMELQGP [L/VP4.4, L/VP4.1 FRET substrate with P4 Y→M substitution]
kcat/KM ([4]; 250 nM SVV-001 3C^pro): 10344 M⁻¹ s⁻¹
cleavage less efficient than the L/VP4.1 Pro variant [4, 8]: 40%
Relative to WT [4]: 5.3

IVYELQGN [L/VP4, endogenous SVV-001 3C^pro cleavage site IVYELQGN cloned between CyPet and YPet as FRET fusion protein substrate]
kcat/KM ([4]; 250 nM SVV-001 3C^pro): 1932 ± 183 M⁻¹ s⁻¹ and 1932 M⁻¹ s⁻¹
cleavage by SVV-001 3C^pro (result in words) ([4]; 250 nM SVV-001 3C^pro): efficiently cleaved

IVYELQGP [L/VP4.1, L/VP4 with Q↓GP (P2’ N→P substitution), FRET fusion protein substrate]
kcat/KM ([4]; 250 nM SVV-001 3C^pro): 17446 ± 2203 M⁻¹ s⁻¹ and 17446 M⁻¹ s⁻¹
increase of kcat/KM relative to L/VP4 [4, 8]: approximately 9 fold
Relative to WT [4]: 9.0
turnover by non-native 3C protease (HRV 3C^pro) ([5]; FRET substrate, 250 nM HRV 3C^pro, 3 hours at 30°C): no turnover
loss of FRET (cleavage) with SVV-001 infected cells [3]: Loss of FRET
turnover by non-native 3C protease (CAV 3C^pro) [6]: no turnover

IVYELQ↓SP [L/VP4.9, P1’ GN→SP substituted form of L/VP4 (IVYELQ↓SP) cloned between CyPET and YPET]
cleavage by SVV-001 3C^pro (result in words) ([4]; 250 nM SVV-001 3C^pro): increased turnover efficiency over L/VP4, but was inferior to L/VP4.1

IVYEPQGP [L/VP4.2, L/VP4.1 FRET substrate with P2 L→P substitution]
cleavage by SVV-001 3C^pro (result in words) ([4]; 250 nM SVV-001 3C^pro): not efficiently cleaved in 3 hours

KLFKMQGP [2B/2C, endogenous SVV-001 cleavage site KLFKMQGP cloned between CyPet and YPet as FRET fusion protein substrate]
kcat/KM ([4]; 250 nM SVV-001 3C^pro): 1204 ± 146 M⁻¹ s⁻¹ and 1204 M⁻¹ s⁻¹
cleavage by SVV-001 3C^pro (result in words) ([4]; 250 nM SVV-001 3C^pro): efficiently cleaved

LEVLFQGP [HRV, optimized human rhinovirus 3C^pro FP substrate (LEVLFQGP), positive control]
kcat/KM ([5]; CyPet/YPet FRET fusion protein substrate 200 nM, recombinant HRV 3C^pro, PBS pH 7.4, 30°C, 3 h, average of 5–7 experiments, uncertainty SD): 5079 ± 528 M⁻¹ s⁻¹ and 5079 M⁻¹ s⁻¹
kcat/KM higher than either SVV FP substrate (L/VP4, 2B/2C) ([5]; HRV FP substrate with HRV 3C^pro versus SVV FP substrates with SVV-001 3C^pro): 3-4 fold

VYELQGP [L/VP4.5, P6 truncation of L/VP4.1 FRET substrate]
kcat/KM ([4]; 250 nM SVV-001 3C^pro): 9839 M⁻¹ s⁻¹
decrease of turnover efficiency of cleavage from L/VP4.1 [4, 8]: ~2 fold
Relative to WT [4]: 5.1

YELQGP [L/VP4.6, P5/P6 truncation of L/VP4.1 FRET substrate]
kcat/KM ([4]; 250 nM SVV-001 3C^pro): 1939 M⁻¹ s⁻¹
Relative to WT [4]: 1.0
